Square brackets hold non-standard residues; d marks the D form. Peptide text beside a SMILES is read from it. Sar = CNCC(=O)O Bounds are passed on as bounds.

The record followed here is patent US20190352339A1, “PEPTIDE INHIBITOR OF TRANSMEMBRANE PORE FORMATION AND EFFLUXPUMP FUNCTION IN A SMALL MULTIDRUG RESISTANCE PROTEIN FROM PSEUDOMONAS AERUGINOSA” (priority 2017, published 2019).

The test system of series [1] is human red blood cells (RBCs). It counts as cell-based. Conditions: for minimal hemolytic concentration (MHC): red cells of human. How it is done: (§1) FIG. 4. (A) Proof-of-concept: Inhibition of Hsmr activity by an SMR TM4-mimic peptide. Hsmr-mediated efflux of the fluorescent toxicant ethidium bromide (EtBr) from E. coli cells upon treatment with a peptide derived from Hsmr TM4(85-105) [sequence shown]. Curves represent the change in EtBr fluorescence upon exiting the bacteria. Ac-A=acetyl-Ala. The black line indicates efflux by Hsmr in the absence of peptide; red line=efflux after addition of 1 μM TM4 peptide. The % efflux is compared in the black and red bars at the right. (B) Bioactivity profiles of designed SMR drug efflux inhibitor peptides. Four assays—EtBr efflux activity (Efflux), EtBr resensitization (ER), antimicrobial activity (AA), and hemolytic activity in human red blood cells (RBC) are depicted for linear peptides TM4(85-105) (left panel), and TM4(88-100) (centre); and stapled (S) peptide S-TM4(88-100)-N95 (right). Values for ER, AA and RBCs are given as the minimal inhibitory (MIC) or hemolytic concentration (MHC) (right axis).
As a necessary measure for any projected clinical applications of the designed inhibitors, hemolytic activity of peptides is assayed in human RBCs to confirm mammalian cell tolerance [Yin et al., 2012, J. Biol. Chem. 287, 7738-7745].

A further series concerns Hsmr. Briefly: EtBr efflux assay, E. coli expressing Hsmr. Type of series: cell-based, Halobacterium salinarum. Particulars: E. coli cells expressing Hsmr, EtBr fluorescence decay. How it is done:
as §1
FIG. 5. (A) Ethidium bromide efflux from E. coli bacteria expressing Hsmr. Peptides were added to ethidium bromide (EtBr) treated cells and incubated for 1 hr. The fluorescence of EtBr drops as the toxin is effluxed from the cells. ‘No peptide’ (maximum efflux control) is depicted in black. The core sequences of the peptides studied are based on the consensus sequence in Table 1. Residues in red emphasize retention of the common SMR TM4-TM4 interface in pathogenic bacteria. (B) EtBr efflux from E. coli containing plasmid-borne SMR from P. aeruginosa, (Psmr), as mediated by peptide LIN (full sequence=Ac-A(Sar)3-^88IIGIALINAGVVV^100-KKK-NH2). This experiment was performed as described in FIG. 4. […]
EtBr efflux represents a rapid and validated means by which to screen for SMR-mediated resistance activity [Poulsen and Deber, 2012, Antimicrob. […] Upon its removal, EtBr efflux is monitored by fluorescence decay.

In series [2] the test system is E. coli (BL21 strain) overexpressing the SMR from P. aeruginosa (Psmr). Briefly: Resensitization of bacteria to growth inhibition by benzalkonium chloride (BZK). Type of series: cell-based. Particulars: for inhibition of bacterial growth, single agent: agent alone (sublethal BZK or non-toxic dose of peptide); for inhibition of bacterial growth, single agent / inhibition of bacterial growth, peptide together with BZK: result in words; for inhibition of bacterial growth, peptide together with BZK: sub-lethal concentration of BZK plus peptide. The method, then:
FIG. 7. Resensitization of bacteria to growth inhibition by the disinfectant benzalkonium chloride (BZK). […] However, when the BZK and TM4 peptide were both present at the same concentrations, the bacterial growth was reduced to <1% [i.e., inhibited to >99% (arrow)]. As a control, the same experiment was performed with a ‘scrambled’ version of TM4 peptide (termed SCR control), having identical amino acid composition but lacking the GG7 motif for binding to Psmr and disruption of its native dimer. […] TM4 peptide=Ac-Ala-(Sar)3-[…]-KKK—NH2 (see also Table 1). SCR control peptide=Ac-Ala-(Sar)3-LLVLAGIGIIGLV-KKK—NH2.
Antimicrobial peptides are exciting leads in the development of novel biocidal agents. Such peptides are currently used commercially in topical formulations, such as the lipopeptides polymyxin B and daptomycin [Kalorama Information Market Intelligence Report, “Health Care Infection Control Market” (126 reports; published on-line May, 2016)]. […] 2013. p. 128]. Despite this, we are not aware of any reports of a peptide that inhibits and/or prevents bacterial resistance to BZK and to other biocide mainstays of hospital and health care facilities. In this context, we examined the ability of the prototypic inhibitor peptides described herein to resensitize pathogenic bacteria to BZK and related disinfectants.

In a further series the test system is E. coli. Briefly: EtBr resensitization assay. Particulars: sublethal toxicant plus peptide; FIG. 4B, result in words. Type of series: cell-based. How it is done: as §1
Resensitization to EtBr and other toxic SMR substrates are evaluated by incubating the bacteria with a sublethal concentration of the toxicant and twofold dilutions of peptide at 37° C. for 20 hr, after which bacterial growth (or lack thereof) is evaluated [Bellman-Sickert et al., 2015, J. Biol. Chem. 290, 1752-1759]. […]

For series [3], the target named is T1, SMR from P. aeruginosa (Psmr) (Pseudomonas aeruginosa, UniProt Q9HUH5).
T1 construct: expressed in transfected cells; host or cells: E. coli
T1 sequence (Q9HUH5 whole entry, looked up): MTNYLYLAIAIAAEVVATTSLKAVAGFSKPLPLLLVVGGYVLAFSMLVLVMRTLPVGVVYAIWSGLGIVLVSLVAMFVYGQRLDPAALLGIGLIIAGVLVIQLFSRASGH
Briefly: EtBr efflux assay, E. coli containing plasmid-borne Psmr. It counts as cell-based. Conditions: 8 μM peptide; FIG. 5B. The method, then: FIG. 5. (A) Ethidium bromide efflux from E. coli bacteria expressing Hsmr. Peptides were added to ethidium bromide (EtBr) treated cells and incubated for 1 hr. The fluorescence of EtBr drops as the toxin is effluxed from the cells. ‘No peptide’ (maximum efflux control) is depicted in black. The core sequences of the peptides studied are based on the consensus sequence in Table 1. Residues in red emphasize retention of the common SMR TM4-TM4 interface in pathogenic bacteria. (B) EtBr efflux from E. coli containing plasmid-borne SMR from P. aeruginosa, (Psmr), as mediated by peptide LIN (full sequence=Ac-A(Sar)3-^88IIGIALINAGVVV^100-KKK-NH2). This experiment was performed as described in FIG. 4.
EtBr efflux represents a rapid and validated means by which to screen for SMR-mediated resistance activity [Poulsen and Deber, 2012, Antimicrob. Agents Chemother. 56, 3911-3916]. Here, E. coli cells are incubated with the peptide, EtBr and carbonyl cyanide 3-chlorophenylhydrazone (CCCP), a widely-used ionophore that acts as a disruptor of the proton-motive force. Upon its removal, EtBr efflux is monitored by fluorescence decay.
In this context, we have recently performed two pilot studies. […]

The mark [4] stands for this setting: sublethal BZK and non-toxic dose of peptide both present, FIG. 7.

For the molecule `CC[C@H](C)[C@H](NC(=O)[C@H](CC(C)C)NC(=O)[C@H](C)NC(=O)[C@H](CC(C)C)NC(=O)CNC(=O)[C@@H](NC(=O)[C@@H](NC(=O)CNC(=O)[C@H](C)NC(=O)[C@@H](NC(=O)CN(C)C(=O)CN(C)C(=O)CN(C)C(=O)[C@H](C)NC(C)=O)C(C)C)C(C)C)C(C)C)C(=O)N[C@H](C(=O)N[C@@H](C)C(=O)NCC(=O)N[C@H](C(=O)N[C@H](C(=O)N[C@H](C(=O)N[C@@H](CC(C)C)C(=O)N[C@@H](CC(N)=O)C(=O)N[C@H](C(=O)N[C@@H](C)C(=O)N[C@@H](CO)C(=O)N[C@@H](CCCCN)C(=O)N[C@@H](CCCCN)C(=O)N[C@@H](CCCCN)C(N)=O)C(C)C)C(C)C)C(C)C)C(C)C)C(C)C` [TM4(85-105)] (Ac-A[Sar][Sar][Sar]VAGVVGLALIVAGVVVLNVASKKK-NH2), in series [1], the hemolytic activity entry is recorded as “partially hemolytic” and the “minimal hemolytic concentration (MHC)” value was roughly 10 µM. Besides, the “inhibition of Hsmr-mediated EtBr efflux” value with Hsmr is on record as “specifically inhibit Hsmr-mediated efflux”.
For the molecule “benzalkonium chloride [BZK, reference compound]”, the “inhibition of bacterial growth, single agent” value (“inhibition … single agent” for short) in series [2] is listed as “neither of which individually significantly inhibited bacterial growth”.
As to `CC[C@H](C)[C@H](NC(=O)[C@H](CC(C)C)NC(=O)[C@H](C)NC(=O)[C@H](CC(C)C)NC(=O)CNC(=O)[C@@H](NC(=O)[C@@H](NC(=O)CN(C)C(=O)CN(C)C(=O)CN(C)C(=O)[C@H](C)NC(C)=O)C(C)C)C(C)C)C(=O)N[C@H](C(=O)N[C@@H](C)C(=O)NCC(=O)N[C@H](C(=O)N[C@H](C(=O)N[C@H](C(=O)N[C@@H](CCCCN)C(=O)N[C@@H](CCCCN)C(=O)N[C@@H](CCCCN)C(N)=O)C(C)C)C(C)C)C(C)C)C(C)C` [TM4(88-100)] (Ac-A[Sar][Sar][Sar]VVGLALIVAGVVVKKK-NH2), in series [1], the hemolytic activity result was “total absence of hemolysis”. For the same molecule, the “minimal hemolytic concentration (MHC)” value in series [1] is greater than 200 µM. Further, the “inhibition of Hsmr-mediated EtBr efflux” value was “significant efflux” with Hsmr and “maintain SMR inhibitory function at levels comparable to the full-length TM4 peptide” in the series with Hsmr (listed as Hsmr TM4(88-100)). In addition, the “EtBr resensitization (ER)” value with E. coli is recorded as “excellent resensitization”.
In the case of “Ac-A(Sar)3-^88IIGIALINAGVVV^100-KKK-NH2 (Ac-A[Sar][Sar][Sar]IIGIALINAGVVVKKK-NH2; SMILES CC[C@H](C)[C@H](NC(=O)CNC(=O)[C@@H](NC(=O)[C@@H](NC(=O)CN(C)C(=O)CN(C)C(=O)CN(C)C(=O)[C@H](C)NC(C)=O)[C@@H](C)CC)[C@@H](C)CC)C(=O)N[C@@H](C)C(=O)N[C@@H](CC(C)C)C(=O)N[C@H](C(=O)N[C@@H](CC(N)=O)C(=O)N[C@@H](C)C(=O)NCC(=O)N[C@H](C(=O)N[C@H](C(=O)N[C@H](C(=O)N[C@@H](CCCCN)C(=O)N[C@@H](CCCCN)C(=O)N[C@@H](CCCCN)C(N)=O)C(C)C)C(C)C)C(C)C)[C@@H](C)CC)”, the “inhibition of Psmr-mediated EtBr efflux” value in series [3] was “inhibition of efflux”.
“Ac-Ala-(Sar)3-LLGIGLIIAGVLV-KKK—NH2 (Ac-A[Sar][Sar][Sar]LLGIGLIIAGVLVKKK-NH2; SMILES CC[C@H](C)[C@H](NC(=O)CNC(=O)[C@H](CC(C)C)NC(=O)[C@H](CC(C)C)NC(=O)CN(C)C(=O)CN(C)C(=O)CN(C)C(=O)[C@H](C)NC(C)=O)C(=O)NCC(=O)N[C@@H](CC(C)C)C(=O)N[C@H](C(=O)N[C@H](C(=O)N[C@@H](C)C(=O)NCC(=O)N[C@H](C(=O)N[C@@H](CC(C)C)C(=O)N[C@H](C(=O)N[C@@H](CCCCN)C(=O)N[C@@H](CCCCN)C(=O)N[C@@H](CCCCN)C(N)=O)C(C)C)C(C)C)[C@@H](C)CC)[C@@H](C)CC) [TM4 peptide]”: in series [2], the “inhibition … single agent” value was “neither of which individually significantly inhibited bacterial growth” and the “inhibition of bacterial growth, peptide together with BZK” value (“inhibition … with BZK” below) is listed as “completely abolishes E. coli growth”. In series [2] (setting [4]), the bacterial growth is less than 1% and the “inhibition of bacterial growth” value is greater than 99%.
Take “Ac-Ala-(Sar)3-LLVLAGIGIIGLV-KKK—NH2 (Ac-A[Sar][Sar][Sar]LLVLAGIGIIGLVKKK-NH2; SMILES CC[C@H](C)[C@H](NC(=O)CNC(=O)[C@H](C)NC(=O)[C@H](CC(C)C)NC(=O)[C@@H](NC(=O)[C@H](CC(C)C)NC(=O)[C@H](CC(C)C)NC(=O)CN(C)C(=O)CN(C)C(=O)CN(C)C(=O)[C@H](C)NC(C)=O)C(C)C)C(=O)NCC(=O)N[C@H](C(=O)N[C@H](C(=O)NCC(=O)N[C@@H](CC(C)C)C(=O)N[C@H](C(=O)N[C@@H](CCCCN)C(=O)N[C@@H](CCCCN)C(=O)N[C@@H](CCCCN)C(N)=O)C(C)C)[C@@H](C)CC)[C@@H](C)CC) [SCR peptide, scrambled version of TM4 peptide, identical composition but lacking the GG7 motif, reference compound]”: in series [2], the “inhibition … single agent” value is recorded as “neither the mixture of BZK+SCR peptide nor the SCR peptide alone inhibited bacterial growth” and the “inhibition … with BZK” value is “neither the mixture of BZK+SCR peptide nor the SCR peptide alone inhibited bacterial growth”. Further, in series [2] (listed as ‘scrambled’ analog of the TM4 peptide), the “inhibition … with BZK” value was “inactive”.
